# Source: patent US7432253B2, “Phosphoepoxides, method for making same and uses” (Institut National de la Sante et de la Recherche Medicale, priority 1998, dated 2008)
# Legend:
# [1] = test system: mice; assay: Toxicity of Epox-PP (sodium salt) in mice, intravenous injection; format: in vivo
# Method: Five 30 g mice received an intravenous injection (caudal vein) of 300 μl of PBS buffer containing 1 mg of Epox-PP (sodium salt). […] Toxicity is thus less than 20% for a dose of 33.4 mg of Epox-PP (sodium salt) per kilogram of animal body weight.
# [2] = test system: Tγ9δ2 lymphocyte clone; assay: Induced cytotoxicity test of a Tγ9δ2 lymphocyte clone; format: cell-based; settings: for concentration at which the compound is active: stimulation of specific cytotoxic activity
# [3] = test system: Tγ9δ2 lymphocytes; assay: Bioactivity (induced cytotoxicity test) after transient chemical treatment; format: cell-based; parameters: key: + indicates detection of activity upon Tγ9δ2 lymphocytes; − indicates that no activity could be detected; settings: diluted 1:30 from 5 to 10 μM solutions
# Method: The bioactivity of the compound according to the invention Epox-PP (obtained as stated in Example 1) is compared with that of a stock preparation of Tubag natural phosphoantigens obtained as described in WO 95/20673.
# Bioactivity is measured by an induced cytotoxicity test as described in Example 6 using the compound to be tested diluted 1:30 from 5 to 10 μM solutions of the compounds.
# Before bioactivity is measured, the compounds are subjected to a transient chemical treatment by being brought into contact with one of the following reagents: NaIO4 (5 mM); NaBH3CN (10 mM, pH 7); KMnO4 (1 mM); bromine water Br2, H2O (7 mM), followed by neutralization of the reagent.
# [4] = test system: human Tγ9δ2 lymphocytes
# [5] = test system: human Tγ9δ2 lymphocytes; settings: prior art prenyl pyrophosphates, best results obtained; cited from earlier work
Substance,sign of shock or pyrogenicity ([1]; 1 mg i.v. (caudal vein) per 30 g mouse),"variation in the weight of the mice ([1]; 1 mg i.v. per 30 g mouse, during the study)","Toxicity ([1]; dose of 33.4 mg per kilogram of animal body weight, i.v.)","mice still alive after 30 days ([1]; five mice, 1 mg i.v. per 30 g mouse, 30 days) [mice]",concentration at which the compound is active [2] [nM],Bioactivity after chemical treatment: KMnO4 (1 mM) ([3]; KMnO4 1 mM),Bioactivity after chemical treatment: NaBH3CN (10 mM pH7) ([3]; NaBH3CN 10 mM pH 7),Bioactivity after chemical treatment: NaIO4 (5 mM) ([3]; NaIO4 5 mM),"Bioactivity after chemical treatment: Br2, H2O (7 mM) ([3]; bromine water 7 mM)",Bioactivity after chemical treatment: none ([3]; no reagent),active concentration relative to the compound from Example 1 ([2]; IPP versus Epox-PP) [times higher],minimum active concentration relative to natural phosphoantigens [4] [times higher],minimum concentration at which activity could be demonstrated [5] [µM]
"3,4-epoxy-3-methyl-1-butyl diphosphate [Epox-PP (sodium salt)]",No sign of shock or pyrogenicity,no significant variation,less than 20%,5,–,–,–,–,–,–,–,–,–
"3,4-epoxy-3-methyl-1-butyl diphosphate [Epox-PP]",–,–,–,–,~20,+,+,+,+,+,–,–,–
isopentenylpyrophosphate [IPP],–,–,–,–,~3000,–,–,–,–,–,150,~1000,≥ 3
